As a reminder, the pKi is −log10 of the Ki, conventionally taken in molar units. Low values mean a high Ki, high ones a low Ki.

For this assay, the target named is 5-hydroxytryptamine receptor 5B (Rattus norvegicus, UniProt P35365).

SMILES strings stand for the structures. pKi: −log10 of the molar value.

Sequence of 5-hydroxytryptamine receptor 5B (P35365 whole entry): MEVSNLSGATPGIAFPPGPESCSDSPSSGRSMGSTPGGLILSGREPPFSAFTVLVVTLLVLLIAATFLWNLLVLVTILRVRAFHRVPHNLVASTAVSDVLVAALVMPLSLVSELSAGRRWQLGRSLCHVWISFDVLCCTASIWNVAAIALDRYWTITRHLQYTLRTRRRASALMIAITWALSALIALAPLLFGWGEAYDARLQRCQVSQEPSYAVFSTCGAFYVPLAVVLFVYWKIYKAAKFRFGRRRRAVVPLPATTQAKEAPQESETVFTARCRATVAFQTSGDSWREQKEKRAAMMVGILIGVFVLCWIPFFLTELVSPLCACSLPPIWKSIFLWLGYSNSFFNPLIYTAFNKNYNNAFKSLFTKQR

`CCCN(CCC)C1CCc2cccc(O)c2C1` (stereo not given) gave a pKi of 7.34.

In turn, `CC[C@@H](CO)NC(=O)[C@@H]1C=C2c3cccc4c3c(cn4C)C[C@H]2N(C)C1` had a pKi of 7.39.

As to `NCCc1c[nH]c2ccc(OCC(=O)NCC(=O)N[C@@H](Cc3ccc(O)cc3)C(N)=O)cc12`, the pKi was 6.24.

Turning to `O=C(c1ccc(F)cc1)C1CCN(CCn2c(=O)[nH]c3ccccc3c2=O)CC1` [3-(2-{4-[(4-fluorophenyl)carbonyl]piperidin-1-yl}ethyl)-1,2,3,4-tetrahydroquinazoline-2,4-dione], the pKi was 6.00.

`CN1CCC(=C2c3ccccc3C=Cc3ccccc32)CC1` [5-(1-methylpiperidylidene-4)-5H-dibenzo(a,d)cyclopheptene]: the pKi was 6.93.

Take `CN1CC(C(=O)N[C@]2(C)O[C@@]3(O)C4CCCN4C(=O)[C@H](Cc4ccccc4)N3C2=O)CC2c3cccc4[nH]cc(c34)CC21` (stereo partly drawn) [7-Methyl-4,6,6a,7,8,9,10,10a-octahydro-indolo[4,3-fg]quinoline-9-carboxylic acid ((2R,5S,10bS)-5-benzyl-10b-hydroxy-2-methyl-3,6-dioxo-octahydro-oxazolo[3,2-a]pyrrolo[2,1-c]pyrazin-2-yl)-amide]: the pKi was 7.51.

In turn, `O=C(CCCN1CCC2(CC1)C(=O)NCN2c1ccccc1)c1ccc(F)cc1` [8-[4-(4-fluorophenyl)-4-oxidanylidene-butyl]-1-phenyl-1,3,8-triazaspiro[4.5]decan-4-one] showed a pKi of 6.00.

As for `CCN(CC)C(=O)[C@@H]1C=C2c3cccc4[nH]cc(c34)C[C@H]2N(C)C1` [(4R,7R)-N,N-diethyl-6-methyl-6,11-diazatetracyclo[7.6.1.0^{2,7}.0^{12,16}]hexadeca-1(16),2,9,12,14-pentaene-4-carboxamide], the pKi was 8.49.

`CC(C)NCC(O)COc1cccc2[nH]ccc12` (stereo not given) [LB-46] showed a pKi of 6.00.

Turning to `CNS(=O)(=O)Cc1ccc2[nH]cc(CCN(C)C)c2c1` [Sumax], the negative-log Ki (pKi) was 6.09.

Values taken from BindingDB's records for doi:10.1016/0014-5793(93)80368-5 (University of Heidelberg Zmbh, 1993).
